Literature values in article PMC10239758 (European journal of medicinal chemistry, 2023).
In brackets after ≈: the same amount, converted by molar mass.

Tested on: Mtb strain H37Rv
Details: cited from earlier work

Q: With `Cc1cc(C)c2cc(C(=O)NC3CCCCCC3)[nH]c2c1` [Compound 6] as the molecule, how does the “MIC H37Rv” value read?
A: 3.9 ng/mL (≈ 0.0137 µM)
